Experimental data published in publication PMC4266358 (Journal of Medicinal Chemistry, 2014).
Entries after “also recorded” stand apart in the source; their conditions may differ. Blank lines part the entries; values can stand above or below the molecule they belong to.

Tests used:
[1] = test system: CNS receptors and ion channels (44 off-target sites); test: PDSP broad screen of binding at off-target sites; details: binding screen at 10 μM / Ki follow-up
[2] = test system: CACO-2 cell monolayer / P-glycoprotein; test: Bidirectional permeability in CACO-2 cell monolayer; details: CACO-2 monolayer; for P-glycoprotein substrate: bidirectional permeability
[3] = test system: chronic constriction injury (CCI) of the sciatic nerve, mechano-allodynia; test: CCI model of neuropathic pain in mice, oral dosing, paw withdrawal threshold; format: in vivo, mouse; details: for in vivo duration of action: po, CCI model in mice
mA3AR = target: T1, mA3AR (Mus musculus, UniProt Q61618); format: cell-based
T1 sequence (Q61618 1-319): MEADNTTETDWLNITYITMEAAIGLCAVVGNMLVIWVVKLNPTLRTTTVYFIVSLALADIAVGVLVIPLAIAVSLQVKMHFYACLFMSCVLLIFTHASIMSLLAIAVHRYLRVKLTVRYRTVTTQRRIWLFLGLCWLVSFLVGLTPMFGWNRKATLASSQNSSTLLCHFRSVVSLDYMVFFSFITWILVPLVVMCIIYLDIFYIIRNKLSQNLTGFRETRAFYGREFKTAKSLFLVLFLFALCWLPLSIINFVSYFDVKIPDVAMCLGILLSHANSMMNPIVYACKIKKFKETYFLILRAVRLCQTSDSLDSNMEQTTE

[4] = Chemical stability in simulated intestinal fluid; details: pH 6.5, 37 °C
Plasma protein binding [5] = test: Plasma protein binding
[6] = Stability in mouse liver microsomes
hA3AR = target: T2, hA3AR (Homo sapiens, UniProt P0DMS8); test: Radioligand binding at hA3AR, CHO cell membranes, [125I]I-AB-MECA; details: read-out: hA3AR Ki, n = 3–4
T2 sequence (P0DMS8 1-318): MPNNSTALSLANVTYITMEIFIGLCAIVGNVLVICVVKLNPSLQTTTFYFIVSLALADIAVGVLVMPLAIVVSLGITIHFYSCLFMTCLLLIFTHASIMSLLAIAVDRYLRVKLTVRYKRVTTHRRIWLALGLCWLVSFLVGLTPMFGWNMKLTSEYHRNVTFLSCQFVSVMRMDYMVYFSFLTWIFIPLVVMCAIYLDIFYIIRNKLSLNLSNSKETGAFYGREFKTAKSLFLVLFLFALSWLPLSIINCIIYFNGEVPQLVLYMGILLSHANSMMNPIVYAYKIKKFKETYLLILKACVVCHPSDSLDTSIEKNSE

[7] = Chemical stability in simulated gastric fluid; details: pH 1.6, 37 °C
Plasma protein binding [8] = test: Plasma protein binding; remark: listed apart in the source
Plasma protein binding [9] = test: Plasma protein binding; remark: listed apart in the source
[10] = Stability in human liver microsomes
[11] = Stability in rat liver microsomes

Structure (SMILES): CNC(=O)[C@@]12C[C@@H]1[C@@H](n1cnc3c(NC)nc(C#Cc4ccc(F)c(F)c4)nc31)[C@H](O)[C@@H]2O [Compound 13, reference compound]
- off-target interactions in PDSP screen [1]: inhibited binding by >30% at only a few sites

- P-glycoprotein substrate [2]: not to be substrates for P-glycoprotein
Structure (SMILES): CNC(=O)[C@@]12C[C@@H]1[C@@H](n1cnc3c(NC)nc(C#Cc4cnccn4)nc31)[C@H](O)[C@@H]2O [Compound 23, (1S,2R,3S,4R,5S)-2,3-Dihydroxy-N-methyl-4-(6-(methylamino)-2-(pyrazin-2-ylethynyl)-9H-purin-9-yl)bicyclo[3.1.0]hexane-1-carboxamide]
- off-target interactions in PDSP screen [1]: inhibited binding by >30% at only a few sites

Structure (SMILES): CNC(=O)[C@@]12C[C@@H]1[C@@H](n1cnc3c(NC)nc(C#Cc4cnn(C)c4)nc31)[C@H](O)[C@@H]2O [Compound 26, (1S,2R,3S,4R,5S)-2,3-Dihydroxy-N-methyl-4-(2-((1-methyl-1H-pyrazol-4-yl)ethynyl)-6-(methylamino)-9H-purin-9-yl)bicyclo[3.1.0]hexane-1-carboxamide]
- off-target interactions in PDSP screen [1]: relatively free of off-target receptor effects

- apical to basal permeability [2]: moderate
- P-glycoprotein substrate [2]: not to be substrates for P-glycoprotein
Structure (SMILES): CNC(=O)[C@@]12C[C@@H]1[C@@H](n1cnc3c(NC)nc(C#Cc4ccco4)nc31)[C@H](O)[C@@H]2O [Compound 27, (1S,2R,3S,4R,5S)-4-(2-(Furan-2-ylethynyl)-6-(methylamino)-9H-purin-9-yl)-2,3-dihydroxy-N-methylbicyclo[3.1.0]hexane-1-carboxamide]
- in vivo duration of action [3]: ~3 h
- off-target interactions in PDSP screen [1]: relatively free of off-target receptor effects; also recorded: completely lacks off-target interactions at 10 μM

- IC50 (mA3AR): 60.1 nM
Structure (SMILES): CNC(=O)[C@@]12C[C@@H]1[C@@H](n1cnc3c(NC)nc(C#Cc4cccs4)nc31)[C@H](O)[C@@H]2O [Compound 32, (1S,2R,3S,4R,5S)-2,3-Dihydroxy-N-methyl-4-(6-(methylamino)-2-(thiophen-2-ylethynyl)-9H-purin-9-yl)bicyclo[3.1.0]hexane-1-carboxamide]
- off-target interactions in PDSP screen [1]: inhibited binding by >30% at only a few sites

- apical to basal permeability [2]: moderate
- P-glycoprotein substrate [2]: not to be substrates for P-glycoprotein
Structure (SMILES): CNC(=O)[C@@]12C[C@@H]1[C@@H](n1cnc3c(NC)nc(C#Cc4ccc(Cl)s4)nc31)[C@H](O)[C@@H]2O [Compound 33, (1S,2R,3S,4R,5S)-4-(2-((5-Chlorothiophen-2-yl)ethynyl)-6-(methylamino)-9H-purin-9-yl)-2,3-dihydroxy-N-methylbicyclo[3.1.0]hexane-1-carboxamide]
- reversal of neuropathic pain at intermediate dose ([3]; […] po, Figure 1 dose–response): approximately 80%
- in vivo duration of action [3]: > 3 h
- off-target interactions in PDSP screen [1]: largely free of off-target receptor effects, except at TSPO and σ1 and σ2 receptors

- stability in simulated fluids, intestinal, t1/2 [4]: 174 min
- agonist efficacy at the mA3AR (mA3AR; cyclic AMP assay, HEK293-mA3AR): full agonists
- % unbound in plasma, human (Plasma protein binding [5]): 7.00%
- stability in liver microsomes t1/2, mouse [6]: 1.98 min
- Ki (hA3AR): 2.7 nM
- stability in simulated fluids, gastric, t1/2 [7]: 46.5 min
- % unbound in plasma, rat (Plasma protein binding [8]): 6.32%
- % unbound in plasma, mouse (Plasma protein binding [9]): 4.85%
- stability in liver microsomes t1/2, human [10]: 3.66 min
- stability in liver microsomes t1/2, rat [11]: 6.64 min
Structure (SMILES): CNC(=O)[C@@]12C[C@@H]1[C@@H](n1cnc3c(NC)nc(C#C[c-]4cccc4)nc31)[C@H](O)[C@@H]2O.[Fe+2].c1cc[cH-]c1 [Compound 36, (1S,2R,3S,4R,5S)-4-(2-((Ferrocen-yl)ethynyl)-6-(methylamino)-9H-purin-9-yl)-2,3-dihydroxy-N-methylbicyclo[3.1.0]hexane-1-carboxamide]
- max effect Emax (% ± SEM), % of complete reversal at peak protection ([3]; 3 μmol/kg po on day 7 after CCI, mice, ipsilateral hind paw): 94.3 ± 5.7%
- in vivo duration of action [3]: > 3 h
